The text below walks through data of EPA's ToxValDB 9.5 (doi:10.2903/j.efsa.2010.1653).

As usually defined, the NOAEL is the highest dose or exposure tested at which no adverse effect was seen.

The test system of series [1] is Typhlodromus pyri. The series can be described thus: LR50; higher = less toxic. The settings on record: acute; duration: 7 days; mortality.
Series [2] deals with Typhlodromus pyri. The settings on record: chronic/long-term; duration: 14 days; reproduction.
Another series deals with Apis mellifera. The settings on record: acute; duration: 48 hours; oral; unspecified; mortality.
The next series concerns Canidae. The settings on record: chronic; duration: 1 years; oral; Dog Other; body weight.
Another series relates to Tagia sp. The settings on record: acute; duration: 14 days; mortality.
For another series, the system named is Coturnix japonica. The settings on record: acute; oral; mortality.
The subject of a further series is Oryctolagus sp. The settings on record: developmental; development.
The test system of a further series is Bibionidae. The settings on record: chronic/long-term; duration: 28 days; development.
The next series concerns Daphnia magna. The settings on record: chronic/long-term; duration: 21 days; reproduction.
Setting [3] is: reproduction developmental, reproduction.

As to `Cc1cc(=O)[nH]o1` [Hymexazol], the LR50 in the series with Typhlodromus pyri [1] was determined as 1110 g/ha. Besides, the NOEC was 400 g/ha in the series with Typhlodromus pyri [2]; 86.5 mg/kg-day with Colinus virginianus (setting [3]); > 100 mg/L with Oncorhynchus mykiss (chronic/long-term, duration: 28 days, body weight); 1.6 mg/L with Bibionidae; 0.8 mg/L in the series with Daphnia magna. The LD50 with Apis mellifera was > 100 µg/piece; with Rattus norvegicus (acute, oral, mortality), 1390 mg/kg; in the series on Coturnix japonica it was > 1080 mg/kg. The LC50 was > 1470 mg/kg-day in the series on Colinus virginianus (acute, oral, diet, mortality); 282 mg/kg with Tagia sp.; > 100 mg/L in the series with Oncorhynchus mykiss (acute, duration: 96 hours, mortality). Further, in the series on Rattus norvegicus (setting [3]), the NOEL was found to be 37 mg/kg-day. Moreover, the values for the NOAEL in the series with Canidae and in the series on Oryctolagus sp. were 17 mg/kg-day and 50 mg/kg-day, respectively.
